In patent US20020137929A1, “1 - (3-heterocyclylphenyl) isothiourea, -isourea, -guanidine and -amidine herbicidal agents” (Intellectual Property Department, BASF Aktiengesellschaft, priority 1998, published 2002):

Legend:
[1] = system: MOOVA (Monochoria); assay: Preemergence weed control under flooded paddy conditions; format: in vivo, Monochoria vaginalis; settings: rated 3-4 weeks after treatment
Procedure, shortened: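 First, seeds or propagules go into the top 0.5 cm of silt loam; next, water is held 1.5 to 3 cm over the soil; then compound (50/50 acetone/water) is pipetted into it at about 0.0313 to 0.500 kg/ha; finally plants are rated visually 0-9 after three to four weeks.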

[2] = system: SETVI (Foxtail, Green); assay: Preemergence herbicidal evaluation; format: in vivo, Setaria viridis; settings: preemergence, rated 4-5 weeks after treatment, 0-9 scale
Procedure, shortened: (§1)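 Test compound, dissolved in aqueous acetone, was sprayed over planted soil cups at an equivalent of about 0.0156 to 0.500 kg/ha; seeds had been mixed with potting soil. Greenhouse growth followed, with visual 0-9 scoring of injury at four to five weeks.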

[3] = system: SETVI (Foxtail, Green); assay: Postemergence herbicidal evaluation; format: in vivo, Setaria viridis; settings: postemergence
Procedure, shortened: (§2)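 Compound is applied as a foliar spray to seedlings about two weeks old, formulated in equal parts acetone and water with 0.5% TWEEN 20 and delivered at 40 psi to give about 0.0156–0.500 kg per hectare. Injury is rated visually 0–9 after four to five weeks.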

[4] = system: ECHORC (Watergrass (Calif.)); assay: Preemergence weed control under flooded paddy conditions; format: in vivo, Echinochloa oryzoides; settings: rated 3-4 weeks after treatment
Procedure, shortened: (§3)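 Ratings on a 0-9 visual scale cover stand, vigor, malformation, size, chlorosis and overall appearance relative to a control, taken three to four weeks post-treatment. Application was into flood water over freshly sown silt loam at roughly 0.0313 to 0.500 kg/ha.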

[5] = system: IPOHE (Morningglory, Ivyleaf); assay: Preemergence herbicidal evaluation; format: in vivo, Ipomoea hederacea; settings: preemergence, rated 4-5 weeks after treatment, 0-9 scale
Procedure, shortened: as §1

[6] = system: TRZAWR (Wheat, Winter, cv Riband); assay: Postemergence herbicidal evaluation; format: in vivo, Triticum aestivum; settings: postemergence
Procedure, shortened: as §2

[7] = system: CYPIR (Rice Flatsedge); assay: Preemergence weed control under flooded paddy conditions; format: in vivo, Cyperus iria; settings: rated 3-4 weeks after treatment
Procedure, shortened: as §3

[8] = system: ZEAMX (Corn, Field); assay: Preemergence herbicidal evaluation; format: in vivo, Zea mays; settings: preemergence, rated 4-5 weeks after treatment, 0-9 scale
Procedure, shortened: as §1

[9] = system: GALAP (Galium); assay: Postemergence herbicidal evaluation; format: in vivo, Galium aparine; settings: postemergence
Procedure, shortened: as §2

[10] = system: ABUTH (Velvetleaf); assay: Preemergence herbicidal evaluation; format: in vivo, Abutilon theophrasti; settings: preemergence, rated 4-5 weeks after treatment, 0-9 scale
Procedure, shortened: as §1

[11] = system: ECHCG (Barnyardgrass); assay: Preemergence herbicidal evaluation; format: in vivo, Echinochloa crus-galli; settings: preemergence, rated 4-5 weeks after treatment, 0-9 scale
Procedure, shortened: as §1

[12] = system: SAGPY (Arrowhead (Pygmaea)); assay: Postemergence weed control under flooded paddy conditions; format: in vivo, Sagittaria pygmaea; settings: postemergence weeds, rated 3 to 4 weeks after treatment
Procedure, shortened: (§4)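 Herbicidal effect is judged by eye on a 0–9 scale versus control, 3–4 weeks after dosing. Dosing is into flood water kept 1.5–3 cm over the soil, at about 0.0313–0.500 kg/ha in aqueous/acetone 50/50 v/v, on 3–5 cm weeds and 1.5–2.5-leaf rice seedlings.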

[13] = system: IPOHE (Morningglory, Ivyleaf); assay: Postemergence herbicidal evaluation; format: in vivo, Ipomoea hederacea; settings: postemergence
Procedure, shortened: as §2

[14] = system: ECHORC (Watergrass (Calif.)); assay: Postemergence weed control under flooded paddy conditions; format: in vivo, Echinochloa oryzoides; settings: postemergence weeds, rated 3 to 4 weeks after treatment
Procedure, shortened: as §4

CCOC(=O)CN1C(=O)C(CC(=O)NS(=O)(=O)c2ccccc2)SC1=Nc1cc(-n2c(=O)cc(C(F)(F)F)n(C)c2=O)c(F)cc1Cl (stereo not drawn) [Compound 100, Ethyl 2-{{2-chloro-5-[3,6-dihydro-3-methyl-2,6-dioxo-4-(trifluoromethyl)-1(2H)-pyrimidinyl]-4-fluorophenyl}imino}-4-oxo-5-{[(phenylsulfonyl)-carbamoyl]methyl]-3-thiazolidineacetate]
2.0: herbicidal rating SETVI ([3]; rate 0.0156 kg/ha) | IPOHE rating ([5]; 0.2500 kg/ha) | herbicidal rating GALAP ([9]; rate 0.0313 kg/ha) | ABUTH rating ([10]; 0.1250 kg/ha)
3.5: herbicidal rating TRZAWR ([6]; rate 0.0625 kg/ha)
7.0: herbicidal rating SETVI ([3]; rate 0.1250 kg/ha)
9.0: MOOVA herbicidal effect rating ([1]; 0.0313 kg/ha) | MOOVA herbicidal effect rating ([1]; 0.0625 kg/ha) | MOOVA herbicidal effect rating ([1]; 0.1250 kg/ha) | MOOVA herbicidal effect rating ([1]; 0.2500 kg/ha) | MOOVA herbicidal effect rating ([1]; 0.5000 kg/ha) | herbicidal rating SETVI ([3]; rate 0.0313 kg/ha) | CYPIR herbicidal effect rating ([7]; 0.5000 kg/ha) | ABUTH rating ([10]; 0.2500 kg/ha) | ABUTH rating ([10]; 0.5000 kg/ha) | herbicidal rating IPOHE ([13]; rate 0.0313 kg/ha) | herbicidal rating IPOHE ([13]; rate 0.0625 kg/ha) | herbicidal rating IPOHE ([13]; rate 0.1250 kg/ha)
5.0: IPOHE rating ([5]; 0.5000 kg/ha) | herbicidal rating IPOHE ([13]; rate 0.0156 kg/ha)
3.0: ECHORC herbicidal effect rating ([4]; 0.2500 kg/ha) | herbicidal rating TRZAWR ([6]; rate 0.0156 kg/ha) | herbicidal rating GALAP ([9]; rate 0.0625 kg/ha) | herbicidal rating GALAP ([9]; rate 0.1250 kg/ha) | Herbicidal rating ECHORC ([14]; Rate 0.2500 kg/ha)
0.0: SETVI rating ([2]; 0.0313 kg/ha) | SETVI rating ([2]; 0.1250 kg/ha) | ECHORC herbicidal effect rating ([4]; 0.0313 kg/ha) | ECHORC herbicidal effect rating ([4]; 0.0625 kg/ha) | ECHORC herbicidal effect rating ([4]; 0.1250 kg/ha) | IPOHE rating ([5]; 0.0625 kg/ha) | IPOHE rating ([5]; 0.1250 kg/ha) | CYPIR herbicidal effect rating ([7]; 0.0313 kg/ha) | CYPIR herbicidal effect rating ([7]; 0.0625 kg/ha) | CYPIR herbicidal effect rating ([7]; 0.1250 kg/ha) | ZEAMX rating ([8]; 0.0313 kg/ha) | ZEAMX rating ([8]; 0.0625 kg/ha) | ZEAMX rating ([8]; 0.1250 kg/ha) | ZEAMX rating ([8]; 0.2500 kg/ha) | ABUTH rating ([10]; 0.0313 kg/ha) | ABUTH rating ([10]; 0.0625 kg/ha) | ECHCG rating ([11]; 0.0313 kg/ha) | ECHCG rating ([11]; 0.0625 kg/ha) | ECHCG rating ([11]; 0.1250 kg/ha) | Herbicidal rating SAGPY ([12]; Rate 0.0313 kg/ha) | Herbicidal rating SAGPY ([12]; Rate 0.0625 kg/ha) | Herbicidal rating SAGPY ([12]; Rate 0.1250 kg/ha) | Herbicidal rating ECHORC ([14]; Rate 0.0313 kg/ha) | Herbicidal rating ECHORC ([14]; Rate 0.0625 kg/ha) | Herbicidal rating ECHORC ([14]; Rate 0.1250 kg/ha)
4.0: ECHORC herbicidal effect rating ([4]; 0.5000 kg/ha) | herbicidal rating TRZAWR ([6]; rate 0.0313 kg/ha) | herbicidal rating TRZAWR ([6]; rate 0.1250 kg/ha) | CYPIR herbicidal effect rating ([7]; 0.2500 kg/ha) | Herbicidal rating SAGPY ([12]; Rate 0.2500 kg/ha) | Herbicidal rating ECHORC ([14]; Rate 0.5000 kg/ha)
1.0: SETVI rating ([2]; 0.0625 kg/ha) | SETVI rating ([2]; 0.2500 kg/ha) | SETVI rating ([2]; 0.5000 kg/ha) | IPOHE rating ([5]; 0.0313 kg/ha) | ZEAMX rating ([8]; 0.5000 kg/ha) | herbicidal rating GALAP ([9]; rate 0.0156 kg/ha) | ECHCG rating ([11]; 0.2500 kg/ha) | ECHCG rating ([11]; 0.5000 kg/ha)
6.0: herbicidal rating SETVI ([3]; rate 0.0625 kg/ha) | Herbicidal rating SAGPY ([12]; Rate 0.5000 kg/ha)
